Measurements taken from US7737151B2, “Pyrazine kinase inhibitors” (Vertex Pharmaceuticals Incorporated, priority 2005, dated 2010).

What was measured:
Assay type in all cases: biochemical
Aurora-2 (Aurora A) = molecular target: T1, Aurora-2 (Aurora A) (Homo sapiens, UniProt O14965); assay: Aurora-2 (Aurora A) Inhibition Assay, coupled enzyme assay; conditions: 400 μM ATP, 570 μM Kemptide, 40 nM Aurora-2, 30° C.
T1 sequence (O14965 1-403): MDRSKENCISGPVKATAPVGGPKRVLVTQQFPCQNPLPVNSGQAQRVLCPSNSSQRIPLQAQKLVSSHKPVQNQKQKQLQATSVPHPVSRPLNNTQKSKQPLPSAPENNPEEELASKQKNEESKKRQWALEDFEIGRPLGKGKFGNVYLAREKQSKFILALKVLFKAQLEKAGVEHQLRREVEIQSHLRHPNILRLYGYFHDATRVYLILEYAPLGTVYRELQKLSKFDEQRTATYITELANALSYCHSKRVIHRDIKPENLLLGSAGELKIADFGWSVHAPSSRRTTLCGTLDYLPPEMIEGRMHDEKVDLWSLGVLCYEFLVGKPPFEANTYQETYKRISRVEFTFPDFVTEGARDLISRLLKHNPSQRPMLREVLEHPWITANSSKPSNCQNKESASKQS
Protocol: Compounds are screened for their ability to inhibit Aurora-2 using a standard coupled enzyme assay (Fox et al., Protein Sci., (1998) 7, 2249). Assays are carried out in a mixture of 100 mM Hepes (pH7.5), 100 mM MgCl2, 1 mM DTT, 25 mM NaCl, 2.5 mM phosphoenolpyruvate, 300 μM NADH, 30 μg/ml pyruvate kinase and 10 μg/ml lactate dehydrogenase. Final substrate concentrations in the assay are 400 μM ATP (Sigma Chemicals) and 570 μM peptide (Kemptide, American Peptide, Sunnyvale, Calif.). Assays are carried out at 30° C. and in the presence of 40 nM Aurora-2.
An assay stock buffer solution is prepared containing all of the reagents listed above, with the exception of Aurora-2 and the test compound of interest. 55 μl of the stock solution is placed in a 96 well plate followed by addition of 2 μl of DMSO stock containing serial dilutions of the test compound (typically starting from a final concentration of 7.5 μM). The plate is preincubated for 10 minutes at 30° C. and the reaction initiated by addition of 10 μl of Aurora-2. Initial reaction rates are determined with a Molecular Devices SpectraMax Plus plate reader over a 10 minute time course. IC50 and Ki data are calculated from non-linear regression analysis using the Prism software package (GraphPad Prism version 3.0cx for Macintosh, GraphPad Software, San Diego Calif., USA). Compounds I-1 and I-2 inhibit Aurora-2 at a Ki value of <0.1 uM.

FLT-3 = molecular target: T2, FLT-3 (Homo sapiens, UniProt P36888); assay: FLT-3 Inhibition Assay, radiometric filter-binding; conditions: 90 μM ATP, 0.5 mg/ml pE4Y, room temperature
T2 sequence (P36888 27-993): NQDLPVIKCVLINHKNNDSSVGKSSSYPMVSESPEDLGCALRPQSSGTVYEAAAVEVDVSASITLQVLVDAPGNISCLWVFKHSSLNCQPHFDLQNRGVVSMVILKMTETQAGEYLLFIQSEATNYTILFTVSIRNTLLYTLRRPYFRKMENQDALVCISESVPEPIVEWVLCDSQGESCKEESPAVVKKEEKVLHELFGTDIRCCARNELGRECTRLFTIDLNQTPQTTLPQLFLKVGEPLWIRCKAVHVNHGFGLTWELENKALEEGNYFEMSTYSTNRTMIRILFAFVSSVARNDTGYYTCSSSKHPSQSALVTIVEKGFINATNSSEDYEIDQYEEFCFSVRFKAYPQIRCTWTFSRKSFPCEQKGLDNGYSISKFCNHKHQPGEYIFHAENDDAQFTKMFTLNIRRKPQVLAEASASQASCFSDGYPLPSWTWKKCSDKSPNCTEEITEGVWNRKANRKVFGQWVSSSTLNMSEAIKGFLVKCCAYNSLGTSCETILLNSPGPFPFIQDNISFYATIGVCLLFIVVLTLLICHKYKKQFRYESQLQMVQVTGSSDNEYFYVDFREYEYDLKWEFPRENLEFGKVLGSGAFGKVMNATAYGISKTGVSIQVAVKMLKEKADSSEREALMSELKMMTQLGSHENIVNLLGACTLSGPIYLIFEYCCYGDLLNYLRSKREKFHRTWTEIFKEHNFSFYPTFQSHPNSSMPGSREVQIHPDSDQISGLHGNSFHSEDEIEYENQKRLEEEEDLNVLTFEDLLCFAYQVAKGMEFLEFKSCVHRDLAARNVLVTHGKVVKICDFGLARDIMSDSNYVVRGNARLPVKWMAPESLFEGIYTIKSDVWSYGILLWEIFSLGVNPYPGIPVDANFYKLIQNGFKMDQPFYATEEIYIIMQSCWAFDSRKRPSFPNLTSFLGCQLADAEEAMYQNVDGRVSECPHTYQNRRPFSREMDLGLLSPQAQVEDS
Protocol: Compounds are screened for their ability to inhibit FLT-3 activity using a radiometric filter-binding assay. This assay monitors the 33P incorporation into a substrate poly(Glu, Tyr) 4:1 (pE4Y). Reactions are carried out in a solution containing 100 mM HEPES (pH 7.5), 10 mM MgCl2, 25 mM NaCl, 1 mM DTT, 0.01% BSA and 2.5% DMSO. Final substrate concentrations in the assay are 90 μM ATP and 0.5 mg/ml pE4Y (both from Sigma Chemicals, St Louis, Mo.). The final concentration of a compound of the present invention is generally between 0.01 and 5 μM. Typically, a 12-point titration is conducted by preparing serial dilutions from 10 mM DMSO stock of test compound. Reactions are carried out at room temperature.
Two assay solutions are prepared. Solution 1 contains 100 mM HEPES (pH 7.5), 10 mM MgCl2, 25 mM NaCl, 1 mg/ml pE4Y and […] (containing 0.3 mCi of [γ-33^P]ATP for each reaction). Solution 2 contains 100 mM HEPES (pH 7.5), 10 mM MgCl2, 25 mM NaCl, 2 mM DTT, 0.02% BSA and 3 nM FLT-3. The assay is run on a 96 well plate by mixing 50 μl each of Solution 1 and […] of the compounds of the present invention. The reaction is initiated with Solution 2. […] The amount of ^33P incorporation into pE4y is analyzed by a Packard Top Count Microplate Scintillation Counter (Meriden, Conn.). […]

Aurora-1 (Aurora B) = Aurora-1 (Aurora B) (Homo sapiens, UniProt Q96GD4); assay: Aurora-1 (Aurora B) Inhibition Assay (Radiometric); conditions: 800 μM ATP, Kemptide, 25° C.; read-out: Ki, Aurora-1 (Aurora B) radiometric assay (sentence prints Aurora-2)
Sequence of Aurora-1 (Aurora B) (Q96GD4 whole entry): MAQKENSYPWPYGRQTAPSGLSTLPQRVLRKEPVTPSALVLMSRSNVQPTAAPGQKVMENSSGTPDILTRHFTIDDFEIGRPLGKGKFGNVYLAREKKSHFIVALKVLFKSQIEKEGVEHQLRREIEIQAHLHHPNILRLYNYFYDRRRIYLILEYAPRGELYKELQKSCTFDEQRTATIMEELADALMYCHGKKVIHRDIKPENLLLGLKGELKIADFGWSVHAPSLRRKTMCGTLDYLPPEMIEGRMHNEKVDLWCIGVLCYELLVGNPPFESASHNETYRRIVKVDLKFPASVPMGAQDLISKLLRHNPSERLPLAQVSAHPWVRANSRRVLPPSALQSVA
Protocol: An assay buffer solution is prepared which consisted of 25 mM HEPES (pH 7.5), 10 mM MgCl2, 0.1% BSA and 10% glycerol. A 22 nM Aurora-B solution, also containing 1.7 mM DTT and 1.5 mM Kemptide (LRRASLG), is prepared in assay buffer. To 22 μL of the Aurora-B solution, in a 96-well plate, is added 2 μl of a compound stock solution in DMSO and the mixture allowed to equilibrate for 10 minutes at 25° C. The enzyme reaction is initiated by the addition of 16 μl stock [γ-^33P]-ATP solution (˜20 nCi/μL) prepared in assay buffer, to a final assay concentration of 800 μM. The reaction is stopped after 3 hours by the addition of 16 μL 500 mM phosphoric acid and the levels of ^33P incorporation into the peptide substrate are determined by the following method. […] Levels of non-enzyme catalysed background radioactivity are determined by adding 16 μL of the 500 mM phosphoric acid to control wells, containing all assay components (which acts to denature the enzyme), prior to the addition of the [γ-^33P]-ATP solution. Levels of enzyme catalysed ^33P incorporation are calculated by subtracting mean background counts from those measured at each inhibitor concentration. […] Ki values are calculated from initial rate data by non-linear regression using the Prism software package (Prism 3.0, Graphpad Software, San Diego, Calif.). […]

Compound	Ki (Aurora-2 (Aurora A))	Ki (FLT-3)	Ki (Aurora-1 (Aurora B))
Cc1cnc(Nc2cncc(Sc3ccc(NC(=O)C4CC4)cc3)n2)s1 [Compound I-1, N-(4-(6-(5-methylthiazol-2ylamino)pyrazin-2-ylthio)phenyl)cyclopropanecarboxamide]	< 100 nM	< 1000 nM	
Cc1cc(Nc2cncc(Sc3ccc(NC(=O)C4CC4)cc3)n2)[nH]n1 [Compound I-2, N-(4-(6-(3-methyl-1H-pyrazol-5-ylamino)pyrazin-2-ylthio)phenyl)cyclopropanecarboxamide]	< 100 nM	< 1000 nM	< 1000 nM
